Test results reported in PubChem BioAssay AID1963841 (Molecular Pharmacology Branch, DTP, NCI, 2024).

Tested on: 439559-082-T-J2-PDC spheroid viability
Assay: Anticancer human tumor 439559-082-T-J2-PDC patient-derived colon adenocarcinoma cell line growth inhibition [POLQ]
Conditions: spheroids with HUVEC and MSC; for IC50: curve of first compound; for viability, T/C: stronger effect = lower value
How it was run: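 Patient-derived tumour cells were co-cultured with HUVEC and mesenchymal stem cells as multicellular spheroids at 37 °C. They were treated with POLQ inhibitors (novobiocin, ART-558, RP6685) alone or combined with other agents. Top concentrations were at or near clinical Cmax (otherwise 10 microM; SN-38 at 1 microM), decreasing in half-log steps.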
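Further: spheroids exposed to compounds for seven days before readout.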
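Wherever viability, T/C is given: 100% = DMSO vehicle control viability.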

With `C#Cc1c(F)ccc2cc(O)cc(-c3ncc4c(N5CC6CCC(C5)N6)nc(OCC56CCCN5CC(F)C6)nc4c3F)c12` (configuration not stated) + Cc1cccc(N(C)C(=O)C2C(O)CCN2c2nc(C)cc(C(F)(F)F)c2C#N)c1 as the molecule, how does the IC50 (second compound 0.0316 µM) read?
The IC50 was over 10 µM.

What about the IC50 (second compound 0.1 µM) of the same molecule?
The IC50 was over 10 µM.

And the IC50 (second compound 0.316 µM)?
Its IC50 is over 10 µM.

And the IC50 (second compound 1 µM)?
Its IC50 is over 10 µM.

And the IC50 (second compound 3.16 µM)?
The IC50 was over 10 µM.

What about the IC50 (second compound 10 µM) of the same molecule?
The IC50 was 7.64 µM.

What about the viability, T/C (second compound 0.0316 µM, first compound 0.0316 µM) of the same molecule?
Its viability, T/C is 92%.

What about the viability, T/C (second compound 0.0316 µM, first compound 0.1 µM) of the same molecule?
Its viability, T/C is 86.6%.

And the viability, T/C (second compound 0.0316 µM, first compound 0.316 µM)?
Its viability, T/C is 72.3%.

What about the viability, T/C (second compound 0.0316 µM, first compound 1 µM) of the same molecule?
Its viability, T/C is 63.1%.

What about the viability, T/C (second compound 0.0316 µM, first compound 3.16 µM) of the same molecule?
Its viability, T/C is 61.9%.

And the viability, T/C (second compound 0.0316 µM, first compound 10 µM)?
The viability, T/C was 52.5%.

And the viability, T/C (second compound 0.1 µM, first compound 0.0316 µM)?
The viability, T/C was 100%.

What about the viability, T/C (second compound 0.1 µM, first compound 0.1 µM) of the same molecule?
The viability, T/C was 81.5%.

What about the viability, T/C (second compound 0.1 µM, first compound 0.316 µM) of the same molecule?
Its viability, T/C is 72.1%.

And the viability, T/C (second compound 0.1 µM, first compound 1 µM)?
Its viability, T/C is 70.7%.

What about the viability, T/C (second compound 0.1 µM, first compound 3.16 µM) of the same molecule?
Its viability, T/C is 59.2%.

What about the viability, T/C (second compound 0.1 µM, first compound 10 µM) of the same molecule?
The viability, T/C was 55%.

What about the viability, T/C (second compound 0.316 µM, first compound 0.0316 µM) of the same molecule?
Its viability, T/C is 99%.

What about the viability, T/C (second compound 0.316 µM, first compound 0.1 µM) of the same molecule?
The viability, T/C was 87.6%.

And the viability, T/C (second compound 0.316 µM, first compound 0.316 µM)?
The viability, T/C was 72%.

And the viability, T/C (second compound 0.316 µM, first compound 1 µM)?
Its viability, T/C is 69.9%.

And the viability, T/C (second compound 0.316 µM, first compound 3.16 µM)?
Its viability, T/C is 61.2%.

What about the viability, T/C (second compound 0.316 µM, first compound 10 µM) of the same molecule?
The viability, T/C was 60.3%.

And the viability, T/C (second compound 1 µM, first compound 0.0316 µM)?
Its viability, T/C is 87.6%.

What about the viability, T/C (second compound 1 µM, first compound 0.1 µM) of the same molecule?
The viability, T/C was 78.1%.

And the viability, T/C (second compound 1 µM, first compound 0.316 µM)?
The viability, T/C was 72.4%.

And the viability, T/C (second compound 1 µM, first compound 1 µM)?
The viability, T/C was 66.7%.

And the viability, T/C (second compound 1 µM, first compound 3.16 µM)?
Its viability, T/C is 62%.

What about the viability, T/C (second compound 1 µM, first compound 10 µM) of the same molecule?
The viability, T/C was 51.8%.

And the viability, T/C (second compound 3.16 µM, first compound 0.0316 µM)?
Its viability, T/C is 94.5%.

And the viability, T/C (second compound 3.16 µM, first compound 0.1 µM)?
Its viability, T/C is 80.9%.

And the viability, T/C (second compound 3.16 µM, first compound 0.316 µM)?
Its viability, T/C is 69.8%.

And the viability, T/C (second compound 3.16 µM, first compound 1 µM)?
The viability, T/C was 65.7%.

What about the viability, T/C (second compound 3.16 µM, first compound 3.16 µM) of the same molecule?
Its viability, T/C is 63.2%.

And the viability, T/C (second compound 3.16 µM, first compound 10 µM)?
The viability, T/C was 52.5%.

What about the viability, T/C (second compound 10 µM, first compound 0.0316 µM) of the same molecule?
Its viability, T/C is 81.2%.

What about the viability, T/C (second compound 10 µM, first compound 0.1 µM) of the same molecule?
The viability, T/C was 69.1%.

And the viability, T/C (second compound 10 µM, first compound 0.316 µM)?
Its viability, T/C is 69%.

And the viability, T/C (second compound 10 µM, first compound 1 µM)?
Its viability, T/C is 58.1%.

What about the viability, T/C (second compound 10 µM, first compound 3.16 µM) of the same molecule?
The viability, T/C was 58.2%.

What about the viability, T/C (second compound 10 µM, first compound 10 µM) of the same molecule?
The viability, T/C was 46.7%.
